Measurements from patent CN109134566A, “一种1/20水利巴韦林化合物” (Individual, priority 2017, dated 2019).

Assays:
Assay type in all cases: physicochemical
[1] = Accelerated stability test of the bulk compound (试验例1 稳定性考察); conditions: 40℃±2℃, 6 months, sampled at 0, 1, 2, 3, 6 months
[2] = Freeze-drying test, water before and after (试验例2 冷冻干燥试验); conditions: 0.25 g/vial, vacuum, -40℃, 24 h
[3] = Accelerated stability of compressed tablets (试验例3 压片稳定性); conditions: round tablets 0.5 g/tablet, 40℃±2℃, 6 months, sampled at 0, 1, 2, 3, 6 months

Row | Structure (SMILES) | change in water content (accelerated test) [1] | change in water content after freeze-drying [2] | change in water content of compressed tablets (accelerated test) [3] | change in water content (accelerated test) ([1]; 1/20水) | change in water content after freeze-drying ([2]; 1/20水) | change in water content of compressed tablets (accelerated test) ([3]; 1/20水)
1 | NC(=O)c1ncn([C@@H]2O[C@H](CO)[C@@H](O)[C@H]2O)n1 [对比例1, 利巴韦林] | 明显降低 | 明显降低 | 明显降低 | – | – | –
2 | NC(=O)c1ncn([C@@H]2O[C@H](CO)[C@@H](O)[C@H]2O)n1 [实施例1, 1/20水利巴韦林化合物] | – | – | – | 未发生明显变化 | 未发生明显变化 | 未发生明显变化
